From patent US10519107B2, “Sulfonamide compounds and their use as STAT5 inhibitors” (Governing Council of the University of Toronto, priority 2014, dated 2019)

Tests used:
MCL-1, cleaved PARP-1 = assay: Western blotting of apoptosis and MCL-1 in MV-4;11 cells; type: cell-based, Human
Source text: Correspondingly, western blot analysis for protein levels of pSTAT5 and downstream target gene expression were also investigated within the AML cell line, MV-4; 11.

STAT3 = STAT3 (Homo sapiens, UniProt P40763); assay: SPR binding, His-tagged STAT3; settings: 25° C., Langmuir 1:1 binding model
Chain of STAT3 (P40763 whole entry): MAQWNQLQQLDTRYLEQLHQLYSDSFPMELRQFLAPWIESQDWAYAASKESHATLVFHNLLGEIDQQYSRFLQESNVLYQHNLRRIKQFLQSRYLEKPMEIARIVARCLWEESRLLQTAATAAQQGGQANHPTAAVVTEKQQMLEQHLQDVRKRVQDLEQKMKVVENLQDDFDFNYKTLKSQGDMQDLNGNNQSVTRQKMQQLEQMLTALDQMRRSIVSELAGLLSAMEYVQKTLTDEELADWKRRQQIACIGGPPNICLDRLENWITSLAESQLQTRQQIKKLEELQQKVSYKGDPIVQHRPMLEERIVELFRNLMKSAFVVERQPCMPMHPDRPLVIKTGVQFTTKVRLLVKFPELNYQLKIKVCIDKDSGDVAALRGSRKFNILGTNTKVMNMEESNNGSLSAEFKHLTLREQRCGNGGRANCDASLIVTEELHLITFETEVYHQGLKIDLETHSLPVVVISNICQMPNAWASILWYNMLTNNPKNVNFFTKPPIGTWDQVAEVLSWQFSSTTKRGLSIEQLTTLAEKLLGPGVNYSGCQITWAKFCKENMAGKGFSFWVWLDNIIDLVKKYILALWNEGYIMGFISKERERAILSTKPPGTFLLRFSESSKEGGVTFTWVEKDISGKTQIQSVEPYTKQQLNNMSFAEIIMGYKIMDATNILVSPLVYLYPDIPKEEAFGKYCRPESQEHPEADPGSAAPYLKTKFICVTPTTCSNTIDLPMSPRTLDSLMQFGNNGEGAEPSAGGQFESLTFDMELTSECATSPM
Experimental: Interactions of His-tagged STAT3 and STAT5 with small molecules were investigated using SPR spectroscopy. The binding experiments were carried on a ProteOn XPR36 (Bio-Rad) biosensor at 25° C. using the HTE sensor chip (Bio-Rad, Ontario, Canada). The flow cells of the sensor chip were loaded with a nickel solution at 30 μL/min for 120 s to saturate the Tris-NTA surface with Ni(II) ions. […] When the injection of the compounds was completed, running buffer was allowed to flow over the immobilized substrates for the non-specifically bound inhibitors to dissociate for 600 s. Following dissociation of the compounds, the chip surface was regenerated with an injection of 1 M NaCl at a flow rate of 100 μL/min for 18 s. Interspot channel reference was used for non-specific binding corrections and the blank channel used with each analyte injection served as a double reference to correct for possible baseline drift. Data were analysed using ProteOn Manager Software version 3.1.

[1] = HPLC stability with excess glutathione tripeptide; type: in vitro ADME; settings: 100 μM compound, 10 mM glutathione, HEPES buffer, 20 h
Source text: Considering the structure of 13a, the pentafluorobenzene is the functional moiety that is likely most susceptible to nucleophilic attack from the GST enzyme. Specifically, the para position is highly electron withdrawn enabling for nucleophilic aromatic substitution to take place. […] Data points obtained with the analytical HPLC experiments were fit using ORIGIN software using an exponential decay equation. This equation models for chemical/biological processes whereby a rate in which something happens is proportional to the amount left. Each drug molecule has a certain probability of being metabolized in a small time interval. Thus, as a drug concentration goes down, the rate of its metabolism goes down as well.

wildtype STAT3 protein = wildtype STAT3 protein (Homo sapiens, UniProt P40763); assay: Fluorescence polarization competitive binding, STAT3; settings: FP; converted from IC50 with Equation 1
Chain of wildtype STAT3 protein (P40763 whole entry, species assumed, the tested form may be a part): as the sequence (P40763 whole entry) above
Experimental: Binding of compounds of the disclosure to the STAT5b SH2 domain was assessed using fluorescence polarization assays similar to those previously reported.^15 Analogous assays were also performed with STAT3 protein to determine the specificity of the compounds (13a-d). Fluorescence assays were performed in flat black 384-well plates (Corning) and fluorescence polarization measurements were taken with the Infinite M1000 machine (Tecan, Crailsheim, Germany). The buffer conditions for all assays were 20 mM HEPES, 50 mM NaCl, 1 mM EDTA, 2 mM dithiothreitol, pH 7.5 and the final DMSO concentration in the wells was kept constant at 10%.
Calibration curves for the wildtype STAT3 and STAT5b proteins were derived by incubating a 10 nM final concentration of fluoresceinated-phosphopeptide (5-FAM-pYLPQTC (SEQ ID NO:1) and 5-FAM-GpYLVLDKW (SEQ ID NO:2) for STAT3 and STAT5B, respectively), which are known to bind the SH2 domains, with increasing concentrations of protein (as shown in FIG. 3). The point at which 80% of the fluoresceinated-phosphopeptide was bound was used as the optimal protein concentration required for the competitive fluorescent polarization assays.
For the STAT5b fluorescence polarization assays, the 5-FAM-GpYLVLDKW (SEQ ID NO:2) peptide and STAT5b protein were first incubated for 30 minutes at room temperature. Compounds were titrated at concentrations ranging from 1->60,000 nM and incubated for a further 15 minutes at which point fluorescence polarization measurements were taken in triplicate. The final well concentrations of the fluoresceinated-phosphopeptide and STAT5B were 10 nM and 250 nM, respectively. The same protocol was used for the analogous STAT3 FP assays, except that the 5-FAM-pYLPQTC (SEQ ID NO:1) peptide was used as a probe and the final STAT3 concentration was 150 nM in each well.
The resulting fluorescence polarization measurements were normalized and plotted against compound concentration on a logarithmic scale. The raw data was fitted with a standard dose-normalized response inhibition curve using GraphPad Prism 6 software. The IC50 values were converted to Ki values using Equation 1, which corrects for protein concentration and is a more accurate determination of inhibitory constants in a fluorescence polarization assay than the Cheng-Pruskoff equation.^15 All inhibitory constants and calculated Ki values are summarized in Table 1.
Modified Cheng-Pruskoff equation containing a correction factor for protein concentration.

[2] = tested on: phosphorylated STAT3 (Tyr 705); assay: Western blotting of pSTAT3 in MDA-MB-231 cells; type: cell-based
Experimental: Proteins were extracted using RIPA buffer with protease and phosphates inhibitors and a careful protein determination were preformed (BCA protein assay kit, Pierce). In each assay, 30 μg of clarified whole cell extract were resolved on a 10% polyacrylamide-SDS gel and transferred to a nitrocellulose membrane (Bio-Rad). The membranes were blocked with 5% nonfat milk for at least 1 h followed by an overnight incubation in primary antibody.
Immunodetection was performed using antibodies against the total STAT5 (Cell Signaling #9363), phosphorylated STAT5 (Tyr 694) (Cell Signaling, cat. #9359), total STAT3 (Cell Signaling #4904) and phosphorylated STAT3 (Tyr 705) (Cell Signaling #9661), Cleaved Caspase-3 (Asp175) (Cell Signaling #9661), Cleaved-Parp-1 (ab72805) Anti-Cyclin D1 (Abcam ab16663), Anti-Cyclin-D2 (Abcam ab94685), Anti-c-Myc (Abcam ab32072) and β-actin (Cell Signaling #3700) as a loading control, followed by fluorescent conjugated goat secondary antibodies Alexa Fluor 488 (Cell Signaling #4408) and Alexa Fluor 647.
Downstream of STAT5, modulation of the STAT5 transcriptional targets, MCL-1, CYCLIND1/D2 and MYC was assessed.

[3] = Metabolic stability in human hepatocytes; type: in vitro ADME; settings: 120 min
Experimental: 13a was then evaluated within intact human and mouse hepatocytes. Like the s9 fractions, Verapamil was used as a positive control in the assay. Cryopreserved hepatocytes were thawed and plated to a working cell density of 0.5×10^6 viable cell/mL.

[4] = Metabolic stability in pooled human liver s9 fractions with NADPH; type: in vitro ADME; settings: 60 min
Experimental: (§1) For the pooled s9 fractions, solution of the s9 fraction along with NADPH was added to each well. […] The positive control used in the assay was Verapamil, a known drug to be metabolized by liver enzymes. The reaction was started by the addition of 13a and performed in duplicate. Aliquots were taken from the reaction solution at 0 min and 60 min. The reaction was stopped by the addition of cold methanol. Samples were then analyzed through LC-MS/MS to determine the metabolic profile.

[5] = Metabolic stability in pooled mouse liver s9 fractions with NADPH; type: in vitro ADME; settings: 60 min
Experimental: as §1

For `CC(C)(C)c1cc(CN(C(=O)CN(Cc2ccc(Cl)cc2)S(=O)(=O)c2c(F)c(F)c(F)c(F)c2F)c2ccc(C(=O)O)c(O)c2)cc(C(C)(C)C)c1` [Compound 13a, 4-(2-((N-(4-chlorobenzyl)-2,3,4,5,6-pentafluorophenyl)sulfonamido)-N-(3,5-di-tert-butylbenzyl)acetamido)-2-hydroxybenzoic Acid], the “downstream target MCL-1” value (MCL-1, cleaved PARP-1; MV-4;11, 10 μM, 24 h) was “complete knockdown”, the apoptosis (MCL-1, cleaved PARP-1; MV-4;11, 24 h) was “initiation of apoptosis was observed” and the Kd (STAT3) was 287 ± 29 nM. For the same compound, the “stability to glutathione conjugation” value [1] was “stable to glutathione conjugation”, the Ki (wildtype STAT3 protein) was greater than 60 µM and the pSTAT3 inhibition ([2]; MDA-MB-231, doses corresponding to STAT5 inhibition) was “not inhibited”. For the same compound, the “total STAT3 and STAT5 protein levels” value ([2]; MDA-MB-231 and leukemic cell line) was “neither total STAT3 or STAT5 protein levels were affected”, the “recovered in human hepatocytes” value [3] was 68.56% and the “recovered in boiled human hepatocytes (negative control)” value ([3]; boiled hepatocytes) was roughly 85%. The “recovered in human liver s9 (HLS9) fractions” value [4] was 59.82% and the “recovered in mouse liver s9 (MMLS9) fractions” value [5] was 6.96%.
